Measured values reported in patent US6369225B1, “Compounds having activity as inhibitors of cytochrome P450RAI” (Allergan Sales, Inc., priority 2000, dated 2002).

Columns and labels:
[1] = biological target: T1, RARα (Homo sapiens, UniProt P10276); experiment: chimeric receptor transactivation assay, RARα; type: cell-based; settings: EC50 line of EC50/(EFFICACY)/Kd, read-out: RAR EC50 α
T1 sequence (P10276 183-462 limits assumed): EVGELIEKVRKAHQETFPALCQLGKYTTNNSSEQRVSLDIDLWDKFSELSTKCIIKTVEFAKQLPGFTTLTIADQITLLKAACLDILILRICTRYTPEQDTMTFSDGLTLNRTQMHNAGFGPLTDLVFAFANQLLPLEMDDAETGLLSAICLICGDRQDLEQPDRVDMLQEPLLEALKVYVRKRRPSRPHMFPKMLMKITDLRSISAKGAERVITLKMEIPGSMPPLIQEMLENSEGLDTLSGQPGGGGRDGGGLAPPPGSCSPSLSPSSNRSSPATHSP
Source text: (§1) Assays described below measure the ability of a compound to bind to, and/or activate various retinoid receptor subtypes. When in these assays a compound binds to a given receptor subtype and activates the transcription of a reporter gene through that subtype, then the compound is considered an agonist of that receptor subtype. […] In the below described assays the ability of the compounds to bind to RARα, RARβ, RARγ, RXRα, RXRβ and RXRγ receptors, and the ability or inability of the compounds to activate transcription of a reporter gene through these receptor subtypes can be tested.
(§2) As far as specific assays are concerned, a chimeric receptor transactivation assay which tests for agonist-like activity in the RARα, RARβ, AND RARγ, receptor subtypes, and which is based on work published by Feigner P. L. and Holm M. (1989) Focus, 112 is described in detail in U.S. Pat. No. 5,455,265. The specification of U.S. Pat. No. 5,455,265 is hereby expressly incorporated by reference. The numeric results obtained with several preferred compounds of this invention in this assay are shown below in Table 1.

[2] = biological target: T2, RARγ (Homo sapiens, UniProt P13631); experiment: chimeric receptor transactivation assay, RARγ; type: cell-based; settings: EC50 line of EC50/(EFFICACY)/Kd, read-out: RAR EC50 γ
T2 sequence (P13631 185-419 limits assumed): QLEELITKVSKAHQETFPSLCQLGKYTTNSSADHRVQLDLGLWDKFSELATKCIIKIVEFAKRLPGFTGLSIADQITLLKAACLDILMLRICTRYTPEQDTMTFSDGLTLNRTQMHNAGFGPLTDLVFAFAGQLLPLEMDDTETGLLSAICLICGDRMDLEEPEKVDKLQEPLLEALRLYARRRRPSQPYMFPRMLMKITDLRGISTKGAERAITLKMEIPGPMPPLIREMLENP
Source text: as §1, §2

[3] = biological target: T3, RARγ (Homo sapiens, UniProt P13631); experiment: ligand binding assay, RARγ; settings: Kd line of EC50/(EFFICACY)/Kd, read-out: RAR Kd γ
T3 sequence (P13631 1-454): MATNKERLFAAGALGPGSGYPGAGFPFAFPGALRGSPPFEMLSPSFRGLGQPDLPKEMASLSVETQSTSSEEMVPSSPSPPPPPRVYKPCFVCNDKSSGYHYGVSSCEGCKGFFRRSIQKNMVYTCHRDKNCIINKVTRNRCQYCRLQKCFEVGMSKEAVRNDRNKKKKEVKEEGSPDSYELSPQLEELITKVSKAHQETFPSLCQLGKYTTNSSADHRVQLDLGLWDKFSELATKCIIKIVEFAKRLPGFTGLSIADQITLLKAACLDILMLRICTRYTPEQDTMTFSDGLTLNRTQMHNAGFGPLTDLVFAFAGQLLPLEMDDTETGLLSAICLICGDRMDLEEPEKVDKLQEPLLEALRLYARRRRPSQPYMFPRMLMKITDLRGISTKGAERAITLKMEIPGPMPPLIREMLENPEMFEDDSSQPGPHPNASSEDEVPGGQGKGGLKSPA

[4] = biological target: T4, RARβ (Homo sapiens, UniProt P10826); experiment: ligand binding assay, RARβ; settings: Kd line of EC50/(EFFICACY)/Kd, read-out: RAR Kd β
T4 sequence (P10826 1-455): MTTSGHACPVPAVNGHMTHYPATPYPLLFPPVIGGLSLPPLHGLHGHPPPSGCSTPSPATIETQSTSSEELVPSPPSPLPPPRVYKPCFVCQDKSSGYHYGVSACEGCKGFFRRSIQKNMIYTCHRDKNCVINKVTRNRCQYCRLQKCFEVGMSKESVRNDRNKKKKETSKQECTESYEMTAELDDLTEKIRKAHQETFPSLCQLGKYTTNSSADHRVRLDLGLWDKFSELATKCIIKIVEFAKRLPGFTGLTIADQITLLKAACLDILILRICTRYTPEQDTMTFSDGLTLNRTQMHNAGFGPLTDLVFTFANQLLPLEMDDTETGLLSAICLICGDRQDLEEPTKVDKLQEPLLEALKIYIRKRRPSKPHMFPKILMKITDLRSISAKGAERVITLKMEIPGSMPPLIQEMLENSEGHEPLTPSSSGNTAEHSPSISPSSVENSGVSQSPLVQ

SMILES | EC50 [1] [nM] | EC50 [2] [nM] | Kd [3] [nM] | Kd [4] [nM]
CN(C1CC1)C1CCC(C)(C)c2cc(C#Cc3ccc(C(=O)O)cc3)ccc21 (centres unmarked) [Compound 3, 4-[(5-Cyclopropyl-methyl-amino)-8,8-dimethyl-5,6,7,8-tetrahydro-naphthalene-2yl-ethynyl]-benzoic Acid] | 280 | 9.8 | 158 | 0.8
CC1(C)CCC(=O)c2ccc(C#Cc3ccc(CC(=O)O)cc3)cc21 [Compound 5, 4-[(8,8-Dimethyl-5-oxo-5,6,7,8-tetrahydro-naphthalene-2-yl-ethynyl)-phenyl]-acetic Acid] |  |  | > 10000 | 2810
CN(C1CC1)C1CCC(C)(C)c2cc(C#Cc3ccc(CC(=O)O)cc3)ccc21 (centres unmarked) [Compound 8, 4-[(5-(Cyclopropyl-methyl-amino)-8,8-dimethyl-5,6,7,8-tetrahydro-naphthalene-2-yl-ethynyl)-phenyl]-acetic Acid] |  |  | 25000 | 3780
CC1(C)CC2(CC2)Oc2ccc(C#Cc3ccc(C(=O)O)cc3)cc21 [Compound 40, Benzoic Acid, 4-[(3,4-dihydro-4,4-dimethylspiro[2H-1-benzopyran-2,1′-cyclopropane]-6-yl)ethynyl]-] | 33 | 6.8 | 363 | 1.3
CC1(C)CC2(CC2)Oc2ccc(C#Cc3ccc(C(=O)O)c(F)c3)cc21 [Compound 44, 2-Fluoro-benzoic Acid, 4-[(3,4-dihydro-4,4-dimethylspiro[2H-1-benzopyran-2,1′-cyclopropane]-6-yl)ethynyl]-] | 49 | 7.5 | 392 | 1.9
COC1(c2ccc(C#Cc3ccc(C(=O)O)cc3)cc2)CC1 [Compound 69, 4-[4-(1-Methoxycyclopropyl)-phenylethynyl]-benzoic Acid] | 313 | 52.6 | 501 | 133
CC(C)OC1(c2ccc(C#Cc3ccc(C(=O)O)cc3)cc2)CC1 [Compound 73, 4-[4-(1-Isopropoxycyclopropyl)-phenylethynyl]-benzoic Acid] |  | 91 | 351 | 26
Cc1cc(C#Cc2ccc(C(=O)O)cc2)ccc1C1(OCc2ccccc2)CC1 [Compound 81, 4-[4-(1-Benzyloxycyclopropyl)-3-methyl-phenylethynyl]-benzoic Acid] |  | 183 | 1060 | 846
Cc1cc(C#Cc2ccc(C(=O)O)cc2)ccc1C1(OC(C)C)CC1 [Compound 85, 4-[4-(1-Isopropoxycyclopropyl)-3-methyl-phenylethynyl]-benzoic Acid] | 976 | 2.5 | 302 | 240
Cc1cc(C#Cc2ccc(C(=O)O)cc2)ccc1C1(OCC(C)(C)C)CC1 [Compound 89, 4-[4-[1-(2,2-Dimethylpropyloxy)-cyclopropyl]-3-methyl-phenylethynyl]-benzoic Acid] | 268 | 12 | 475 | 980
CCc1cc(C#Cc2ccc(C(=O)O)cc2)ccc1C1(OCc2ccccc2)CC1 [Compound 93, 4-[4-(1-Benzyloxycyclopropyl)-3-ethyl-phenylethynyl]-benzoic Acid] | 4820 | 10 | 358 | 554
CCCNC1(c2ccc(C#Cc3ccc(C(=O)O)cc3)cc2)CC1 [Compound 108, 4-[4-(1-Propylamino-cyclopropyl)-phenylethynyl]-benzoic Acid] | 6.6 | 141 | 13000 | 547
CCCN(CCC)C1(c2ccc(C#Cc3ccc(C(=O)O)cc3)cc2)CC1 [Compound 110, 4-[4-(1-Dipropylamino-cyclopropyl)-phenylethynyl]-benzoic Acid] |  | 262 | < 10000 | 409
O=C(O)c1ccc(C#Cc2ccc(C3(NCc4ccccc4)CC3)cc2)cc1 [Compound 112, 4-[4-(1-Benzylamino-cyclopropyl)-phenylethynyl]-benzoic Acid] |  |  | 685 | 704
